Test results published in patent US11478488B2, “Co-crystals of tramadol and coxibs” (ESTEVE PHARMACEUTICALS, S.A., priority 2009, dated 2022).
Where two headings read alike, the source gives them in different places.

What was measured:
[1] = test system: incision-induced thermal hyperalgesia in the incised rat hind paw; assay: Thermal hyperalgesia (plantar test, Hargreaves) in paw incision postoperative pain model; type: in vivo, Wistar rats; settings: for ED50: read-out: ED50 thermal hyperalgesia (after sigmoidal adjustment); for Efficacy on thermal hyperalgesia: rat paw incision, intraperitoneal dose response, FIG. 8
Method: (§1) Male, Wistar rats (120-160 g, Harlan, Italy) were housed in a climate-controlled room for at least 5 days prior to testing.
(§2) The dosing volume was 10 ml/kg. The antihyperalgesic or antiallodynic response of the animal was subsequently evaluated 60 min after drug administration.
(§3) Rats were anaesthetized with 3% isofluorane for veterinary use, employing an Ohmeda vaporizer and an anaesthesia chamber. Anaesthesia was kept during the surgical operation by a tube which directs the isoflurane vapours to the animal's snout. Once the rats were anaesthetised, they were laid down in a prone position and their right hindpaws were cleaned out with alcohol. Then, a 1 cm longitudinal incision was made with a number 23 scalpel, through skin and fascia of the plantar aspect of the paw, starting 0.5 cm from the proximal edge of the heel and extending toward the toes. Therefore, both superficial (skin) and deep (muscle) tissues and nerves were injured. Finally, the skin of the paw was stitched with a suturing stitch with breaded silk (3.0) and the wound was cleaned out with povidone.
(§4) The drugs were tested 4 hours after the surgery (plantar incision); 60 minutes after the administration of the product, two behavioural endpoints were evaluated: thermal hypersensitivity or hyperalgesia, and mechanical hypersensitivity or allodynia.
Animals were placed in the methacrylate cages of said apparatus, having a crystal floor. The acclimation period within the cages was about 10 minutes. The thermal stimulus came from a lamp moving below the crystal floor and which was applied to both paws, with a minimum interval of 1 minute between both stimulations in order to avoid learning behaviours. The rat is able to withdraw the paw freely when it feels discomfort (pain) produced by the heat coming from the lamp; then it is switched off and the latency time to the withdrawal response is recorded in seconds. In order to avoid hurting the animal's paw, the lamp was automatically switched off after 32 seconds.

[2] = test system: motor behaviour of monoarthritic rats (carrageenan-induced gait changes); assay: Pain-induced gait adaptation (CBMS) in carrageenan-induced acute monoarthritic model; settings: intraperitoneal 4.5 h after carrageenan, measured 30 min after administration; co-crystal 20 mg/kg, single drugs at corresponding dose
Method: Movement-evoked pain was evaluated by a computerized behavioral monitoring system (CBMS).
The rat carrageenan model utilizes inflammation-associated pain following injection of the knee joint (monoarthritic model). […] The CBMS was used to assess gait related changes 5 hours after carrageenan injection and 30 min after drugs administration. […] Mechanical allodynia was measured with von Frey filaments 15 minutes after CBMS gait analysis.
Food and water were available ad libitum up to test time.
The dosing volume was 2 ml/kg. The drug response of the animal was subsequently evaluated 30 and 45 min after drug administration (for CBMS and von Frey respectively).
Joint inflammation was induced by carrageenan (Sigma Chemical, St. Louis, Mo.) injected percutaneously using a 30-gauge needle through the infrapatellar ligament into the right knee joint cavity (300 μg, 40 μl) with the animal under brief isoflurane (IsoFlo®, Abbott-Esteve, Barcelona, Spain) anaesthesia (3%).
Detailed analysis of gait was performed on walking rats using the CBMS method. Briefly, light from a fluorescent tube is sent through a glass plate. Light rays are completely reflected internally. As soon as anything, e.g. a rat's paw, is in contact with the glass surface, light is reflected downwards. It results in a sharp image of a bright paw print. The whole run is recorded via a camera placed under the glass plate. […]

[3] = test system: incision-induced mechanical allodynia in the incised rat hind paw; assay: Mechanical allodynia (von Frey filaments) in paw incision postoperative pain model; type: in vivo, Wistar rats; settings: ip
Method: as §1, §2, §3, §4
Mechanical allodynia was tested using von Frey filaments. Animals were placed in methacrylate cylinders on an elevated surface, with metallic mesh floor perforated in order to apply the filaments. After an acclimation period of about 30 minutes within the cylinders, both hindpaws were stimulated (the injured and the non-injured paw, serving the latter as control), starting with the lowest force filament (0.4 g) and reaching up to a 15 g filament. The animal's response to pain was manifested by the withdrawal of the paw as a consequence of the painful stimulus caused by a filament. The pressure (force in grams) threshold eliciting the withdrawal of the paw was recorded.
Where it is established that Zmix<Zadd for a specific fixed-ratio, then that composition has a synergistic anti-hyperalgesic effect. Both ED50 mix and ED50 add values are random variables. ED50 mix is determined from the dose-response curve for a specific fixed-ratio of the components; ED50 add is calculated from the ED50 values for the individual drugs. Zmix is then compared to Zadd via a Student's t-test.

[4] = intraperitoneal single dose, 4 h after surgery, evaluated 60 min after administration, read-out: ED50 mechanical allodynia (after sigmoidal adjustment)
[5] = intraperitoneal, separate ED50 of single drugs for isobologram analysis, read-out: ED50 on mechanical allodynia as used in the isobologram (FIG. 7)

Structure (SMILES) | Emax ([1]; Rattus norvegicus, ip, 1 h, read-out: Emax thermal hyperalgesia, rat paw incision, intraperitoneal, 60 min after administration) [%] | ED50 ([1]; Rattus norvegicus, ip) [mg/kg] | Efficacy on thermal hyperalgesia [1] | Effect on carrageenan-induced gait changes (CBMS) [2] | ED50 [3, 4] [mg/kg] | ED50 [3, 5] [mg/kg]
Cc1ccc(-c2cc(C(F)(F)F)nn2-c2ccc(S(N)(=O)=O)cc2)cc1 [Celecoxib, 4-[5-(4-methylphenyl)-3-(trifluoromethyl)-pyrazol-1-yl]benzenesulfonamide] | 45 | 2.35 | only a partial response | inhibited | 3.03 | 3.01
COc1cccc(C2(O)CCCCC2CN(C)C)c1 (racemic) [Tramadol, 2-(dimethylaminomethyl)-1-(3-methoxyphenyl)cyclohexanol] | – | 8.3 | full efficacy | inhibited | 5.41 | 5.28
